pKi: −log10 of the molar value.
What was measured:
[1] = target: Beta-3 adrenergic receptor (Homo sapiens, UniProt P13945); assay: (§1) PDSP Secondary Binding target: ADRB3 - Compounds are tested at 10 uM concentration, plate are incubated at room temperature in the dark for 90 minutes. Reaction are stopped by vacuum filtration onto 0.3% polyethyleneimine soaked filter mats using Filtermate harvester. Scintillation cocktail is then melted onto microwave-dried filters on a hot plate and the radio activity is counted in Microbia counter.
Sequence of Beta-3 adrenergic receptor (P13945 whole entry): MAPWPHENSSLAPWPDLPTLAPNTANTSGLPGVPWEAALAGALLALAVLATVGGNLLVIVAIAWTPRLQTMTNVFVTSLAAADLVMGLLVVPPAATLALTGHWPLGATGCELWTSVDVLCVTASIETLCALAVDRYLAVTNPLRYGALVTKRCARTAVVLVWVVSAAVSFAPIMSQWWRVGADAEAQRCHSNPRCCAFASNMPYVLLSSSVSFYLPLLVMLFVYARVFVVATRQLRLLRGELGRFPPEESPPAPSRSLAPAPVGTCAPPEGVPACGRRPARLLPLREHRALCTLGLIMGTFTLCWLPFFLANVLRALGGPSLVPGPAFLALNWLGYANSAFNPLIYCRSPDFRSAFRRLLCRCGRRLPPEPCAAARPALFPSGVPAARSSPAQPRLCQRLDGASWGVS

[2] = target: Beta-1 adrenergic receptor (Homo sapiens, UniProt P08588); assay: as §1, with “ADRB1” for “ADRB3”
Sequence of Beta-1 adrenergic receptor (P08588 whole entry): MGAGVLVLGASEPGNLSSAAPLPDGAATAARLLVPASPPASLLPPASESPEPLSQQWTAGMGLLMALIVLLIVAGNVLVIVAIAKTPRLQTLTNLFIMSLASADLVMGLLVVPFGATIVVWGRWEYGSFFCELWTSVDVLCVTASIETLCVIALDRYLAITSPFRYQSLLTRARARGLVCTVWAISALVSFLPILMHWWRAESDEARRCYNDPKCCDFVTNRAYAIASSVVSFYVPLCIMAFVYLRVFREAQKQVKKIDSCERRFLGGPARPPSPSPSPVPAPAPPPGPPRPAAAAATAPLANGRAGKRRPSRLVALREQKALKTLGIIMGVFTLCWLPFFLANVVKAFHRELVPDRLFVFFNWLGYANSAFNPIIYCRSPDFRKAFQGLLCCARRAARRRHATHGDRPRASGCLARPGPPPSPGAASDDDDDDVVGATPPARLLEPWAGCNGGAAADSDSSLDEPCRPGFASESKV

[3] = target: T1, Alpha-1D adrenergic receptor (Homo sapiens, UniProt P25100); assay: as §1, with “ADRA1D” for “ADRB3”
T1 sequence (P25100 whole entry): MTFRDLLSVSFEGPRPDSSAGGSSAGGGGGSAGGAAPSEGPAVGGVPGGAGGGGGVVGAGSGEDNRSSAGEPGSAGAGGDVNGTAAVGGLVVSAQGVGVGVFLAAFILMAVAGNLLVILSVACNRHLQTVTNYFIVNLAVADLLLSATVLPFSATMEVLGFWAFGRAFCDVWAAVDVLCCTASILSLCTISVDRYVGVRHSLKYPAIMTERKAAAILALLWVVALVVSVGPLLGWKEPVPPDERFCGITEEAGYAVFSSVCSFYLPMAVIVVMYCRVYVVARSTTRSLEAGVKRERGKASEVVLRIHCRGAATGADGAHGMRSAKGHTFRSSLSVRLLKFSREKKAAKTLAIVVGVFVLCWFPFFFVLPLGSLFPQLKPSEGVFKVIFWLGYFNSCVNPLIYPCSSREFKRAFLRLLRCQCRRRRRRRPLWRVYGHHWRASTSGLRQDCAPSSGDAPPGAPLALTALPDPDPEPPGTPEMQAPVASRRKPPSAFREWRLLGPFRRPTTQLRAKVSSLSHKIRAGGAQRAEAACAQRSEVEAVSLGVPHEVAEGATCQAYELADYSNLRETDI

[4] = target: Histamine H1 receptor (Homo sapiens, UniProt P35367); assay: as §1, with “HRH1” for “ADRB3”
Sequence of Histamine H1 receptor (P35367 whole entry): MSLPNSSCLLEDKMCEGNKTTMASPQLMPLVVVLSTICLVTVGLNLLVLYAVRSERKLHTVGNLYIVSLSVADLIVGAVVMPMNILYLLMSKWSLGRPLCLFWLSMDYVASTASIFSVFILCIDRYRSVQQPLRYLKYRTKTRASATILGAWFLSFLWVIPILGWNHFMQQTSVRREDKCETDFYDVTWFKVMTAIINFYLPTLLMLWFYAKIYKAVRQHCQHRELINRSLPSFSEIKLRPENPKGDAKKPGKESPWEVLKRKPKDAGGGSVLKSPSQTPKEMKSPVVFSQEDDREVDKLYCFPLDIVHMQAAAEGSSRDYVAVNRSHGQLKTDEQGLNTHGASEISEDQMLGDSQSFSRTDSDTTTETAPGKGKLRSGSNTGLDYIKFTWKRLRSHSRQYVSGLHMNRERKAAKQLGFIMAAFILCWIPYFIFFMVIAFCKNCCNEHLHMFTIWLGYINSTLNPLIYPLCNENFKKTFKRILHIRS

[5] = target: Histamine H4 receptor (Homo sapiens, UniProt Q9H3N8); assay: as §1, with “HRH4” for “ADRB3”
[6] = target: Sigma non-opioid intracellular receptor 1 (Homo sapiens, UniProt Q99720); assay: as §1, with “SIGMAR1” for “ADRB3”
Sequence of Sigma non-opioid intracellular receptor 1 (Q99720 whole entry): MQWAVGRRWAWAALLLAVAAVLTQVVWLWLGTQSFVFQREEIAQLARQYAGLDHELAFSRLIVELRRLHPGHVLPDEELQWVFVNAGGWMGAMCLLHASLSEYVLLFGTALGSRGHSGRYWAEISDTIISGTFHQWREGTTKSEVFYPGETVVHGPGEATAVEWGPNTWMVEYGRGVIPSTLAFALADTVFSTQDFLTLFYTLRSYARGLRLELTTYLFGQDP

[7] = target: Delta-type opioid receptor (Homo sapiens, UniProt P41143); assay: as §1, with “OPRD1” for “ADRB3”
Sequence of Delta-type opioid receptor (P41143 whole entry): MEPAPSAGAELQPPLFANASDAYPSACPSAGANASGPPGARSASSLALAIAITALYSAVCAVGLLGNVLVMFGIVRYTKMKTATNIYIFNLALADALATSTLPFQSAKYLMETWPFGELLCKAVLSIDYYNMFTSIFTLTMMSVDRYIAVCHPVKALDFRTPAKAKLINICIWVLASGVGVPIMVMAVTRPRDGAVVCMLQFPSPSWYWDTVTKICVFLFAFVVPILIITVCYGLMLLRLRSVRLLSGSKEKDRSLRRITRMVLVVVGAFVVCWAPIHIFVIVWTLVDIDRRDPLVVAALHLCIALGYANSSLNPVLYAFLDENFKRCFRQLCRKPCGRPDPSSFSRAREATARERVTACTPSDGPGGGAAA

[8] = target: 5-hydroxytryptamine receptor 2A (Homo sapiens, UniProt P28223); assay: as §1, with “HTR2A” for “ADRB3”
Sequence of 5-hydroxytryptamine receptor 2A (P28223 whole entry): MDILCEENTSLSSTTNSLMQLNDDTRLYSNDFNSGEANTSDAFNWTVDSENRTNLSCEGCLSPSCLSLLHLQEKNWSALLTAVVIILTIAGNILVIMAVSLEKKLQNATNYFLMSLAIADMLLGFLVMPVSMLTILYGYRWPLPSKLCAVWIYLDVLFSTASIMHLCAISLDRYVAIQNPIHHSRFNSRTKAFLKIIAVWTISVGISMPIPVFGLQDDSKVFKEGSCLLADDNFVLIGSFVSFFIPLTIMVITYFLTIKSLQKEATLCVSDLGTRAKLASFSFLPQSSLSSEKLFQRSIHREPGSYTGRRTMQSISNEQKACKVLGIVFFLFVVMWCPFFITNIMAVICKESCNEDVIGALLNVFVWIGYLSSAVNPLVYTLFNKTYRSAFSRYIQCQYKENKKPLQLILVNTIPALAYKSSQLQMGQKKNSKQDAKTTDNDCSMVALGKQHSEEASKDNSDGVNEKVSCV

[9] = target: T2, 5-hydroxytryptamine receptor 3A (Homo sapiens, UniProt P46098); assay: as §1, with “HTR3A” for “ADRB3”
T2 sequence (P46098 whole entry): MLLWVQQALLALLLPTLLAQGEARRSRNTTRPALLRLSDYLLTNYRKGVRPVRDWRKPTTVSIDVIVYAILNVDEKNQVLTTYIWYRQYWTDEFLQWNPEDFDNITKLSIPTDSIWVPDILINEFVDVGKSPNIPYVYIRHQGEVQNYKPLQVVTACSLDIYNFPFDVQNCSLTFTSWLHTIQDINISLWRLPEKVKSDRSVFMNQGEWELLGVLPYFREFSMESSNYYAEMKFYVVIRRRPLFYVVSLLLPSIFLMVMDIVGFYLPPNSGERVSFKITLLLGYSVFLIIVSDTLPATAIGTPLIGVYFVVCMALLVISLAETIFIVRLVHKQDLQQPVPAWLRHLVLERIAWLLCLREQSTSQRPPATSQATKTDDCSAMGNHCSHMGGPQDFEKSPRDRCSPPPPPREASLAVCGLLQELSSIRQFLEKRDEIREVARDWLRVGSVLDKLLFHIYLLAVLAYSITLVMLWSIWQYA

[10] = target: 5-hydroxytryptamine receptor 2B (Homo sapiens, UniProt P41595); assay: as §1, with “HTR2B” for “ADRB3”
Sequence of 5-hydroxytryptamine receptor 2B (P41595 whole entry): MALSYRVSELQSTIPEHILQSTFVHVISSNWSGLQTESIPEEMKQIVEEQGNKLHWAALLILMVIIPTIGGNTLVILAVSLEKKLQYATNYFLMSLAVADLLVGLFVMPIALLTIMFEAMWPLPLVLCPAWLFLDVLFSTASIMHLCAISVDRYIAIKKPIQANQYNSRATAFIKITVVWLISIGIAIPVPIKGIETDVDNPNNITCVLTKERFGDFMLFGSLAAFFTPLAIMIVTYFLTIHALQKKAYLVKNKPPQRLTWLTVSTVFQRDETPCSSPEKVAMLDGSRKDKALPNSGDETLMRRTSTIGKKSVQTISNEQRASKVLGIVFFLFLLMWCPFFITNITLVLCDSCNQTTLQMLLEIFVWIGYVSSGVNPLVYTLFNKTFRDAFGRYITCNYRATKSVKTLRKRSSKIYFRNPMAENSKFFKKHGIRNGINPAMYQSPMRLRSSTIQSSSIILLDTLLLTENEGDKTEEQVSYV

[11] = target: Sodium-dependent noradrenaline transporter (Homo sapiens, UniProt P23975); assay: as §1, with “SLC6A2” for “ADRB3”
Sequence of Sodium-dependent noradrenaline transporter (P23975 whole entry): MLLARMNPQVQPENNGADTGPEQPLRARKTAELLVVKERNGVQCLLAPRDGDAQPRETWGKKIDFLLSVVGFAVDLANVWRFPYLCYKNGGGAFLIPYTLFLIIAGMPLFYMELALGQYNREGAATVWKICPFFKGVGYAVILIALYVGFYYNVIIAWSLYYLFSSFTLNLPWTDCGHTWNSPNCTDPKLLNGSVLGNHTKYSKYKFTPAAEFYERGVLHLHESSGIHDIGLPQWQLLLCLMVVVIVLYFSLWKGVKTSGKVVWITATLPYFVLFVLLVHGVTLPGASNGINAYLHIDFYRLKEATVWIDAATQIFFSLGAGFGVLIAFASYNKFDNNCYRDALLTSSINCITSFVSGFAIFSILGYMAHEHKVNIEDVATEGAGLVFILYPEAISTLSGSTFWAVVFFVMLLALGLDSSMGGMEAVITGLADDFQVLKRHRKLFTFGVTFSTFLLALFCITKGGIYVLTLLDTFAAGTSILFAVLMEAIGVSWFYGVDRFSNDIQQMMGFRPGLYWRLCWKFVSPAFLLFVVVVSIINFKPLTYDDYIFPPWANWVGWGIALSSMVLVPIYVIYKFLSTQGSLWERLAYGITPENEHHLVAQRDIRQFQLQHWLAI

[12] = target: 5-hydroxytryptamine receptor 1D (Homo sapiens, UniProt P28221); assay: as §1, with “HTR1D” for “ADRB3”
Sequence of 5-hydroxytryptamine receptor 1D (P28221 whole entry): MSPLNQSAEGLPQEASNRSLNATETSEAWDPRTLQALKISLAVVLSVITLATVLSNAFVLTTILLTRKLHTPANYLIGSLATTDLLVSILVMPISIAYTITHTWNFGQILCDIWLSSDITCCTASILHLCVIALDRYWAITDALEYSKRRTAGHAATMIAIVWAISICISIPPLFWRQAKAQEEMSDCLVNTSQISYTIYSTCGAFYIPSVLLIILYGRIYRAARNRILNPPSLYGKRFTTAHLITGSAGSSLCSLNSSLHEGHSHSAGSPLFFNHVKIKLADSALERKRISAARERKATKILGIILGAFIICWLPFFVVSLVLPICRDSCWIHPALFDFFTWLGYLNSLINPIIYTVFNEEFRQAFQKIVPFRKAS

[13] = target: T3, Alpha-2A adrenergic receptor (Homo sapiens, UniProt P08913); assay: as §1, with “ADRA2A” for “ADRB3”
T3 sequence (P08913 whole entry): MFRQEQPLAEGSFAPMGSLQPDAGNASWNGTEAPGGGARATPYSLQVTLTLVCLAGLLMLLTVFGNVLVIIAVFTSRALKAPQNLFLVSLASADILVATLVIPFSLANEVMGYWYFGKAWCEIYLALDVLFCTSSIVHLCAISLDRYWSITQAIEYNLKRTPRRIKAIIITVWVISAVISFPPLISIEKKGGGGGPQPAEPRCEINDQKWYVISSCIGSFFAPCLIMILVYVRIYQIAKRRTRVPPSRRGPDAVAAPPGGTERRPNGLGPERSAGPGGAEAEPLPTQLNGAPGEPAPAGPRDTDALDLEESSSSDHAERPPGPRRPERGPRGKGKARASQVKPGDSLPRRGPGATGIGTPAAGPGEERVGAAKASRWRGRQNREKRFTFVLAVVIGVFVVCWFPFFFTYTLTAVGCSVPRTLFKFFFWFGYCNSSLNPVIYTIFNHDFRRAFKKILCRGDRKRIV

[14] = target: T4, Alpha-1B adrenergic receptor (Homo sapiens, UniProt P35368); assay: as §1, with “ADRA1B” for “ADRB3”
T4 sequence (P35368 whole entry): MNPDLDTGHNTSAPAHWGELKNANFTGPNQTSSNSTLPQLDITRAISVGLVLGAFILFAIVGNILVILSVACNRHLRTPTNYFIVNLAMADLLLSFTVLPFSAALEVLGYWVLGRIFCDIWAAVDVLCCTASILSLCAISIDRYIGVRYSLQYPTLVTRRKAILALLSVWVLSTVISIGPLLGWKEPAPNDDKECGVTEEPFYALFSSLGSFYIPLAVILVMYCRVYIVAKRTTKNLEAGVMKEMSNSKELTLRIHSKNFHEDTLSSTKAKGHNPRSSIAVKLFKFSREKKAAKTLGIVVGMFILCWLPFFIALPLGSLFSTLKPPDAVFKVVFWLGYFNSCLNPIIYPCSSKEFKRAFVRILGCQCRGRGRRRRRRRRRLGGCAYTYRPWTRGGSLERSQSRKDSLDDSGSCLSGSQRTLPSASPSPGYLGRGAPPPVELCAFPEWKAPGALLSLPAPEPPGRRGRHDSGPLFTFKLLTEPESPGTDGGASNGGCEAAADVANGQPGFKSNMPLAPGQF

[15] = target: T5, 5-hydroxytryptamine receptor 2C (Homo sapiens, UniProt P28335); assay: as §1, with “HTR2C” for “ADRB3”
T5 sequence (P28335 whole entry): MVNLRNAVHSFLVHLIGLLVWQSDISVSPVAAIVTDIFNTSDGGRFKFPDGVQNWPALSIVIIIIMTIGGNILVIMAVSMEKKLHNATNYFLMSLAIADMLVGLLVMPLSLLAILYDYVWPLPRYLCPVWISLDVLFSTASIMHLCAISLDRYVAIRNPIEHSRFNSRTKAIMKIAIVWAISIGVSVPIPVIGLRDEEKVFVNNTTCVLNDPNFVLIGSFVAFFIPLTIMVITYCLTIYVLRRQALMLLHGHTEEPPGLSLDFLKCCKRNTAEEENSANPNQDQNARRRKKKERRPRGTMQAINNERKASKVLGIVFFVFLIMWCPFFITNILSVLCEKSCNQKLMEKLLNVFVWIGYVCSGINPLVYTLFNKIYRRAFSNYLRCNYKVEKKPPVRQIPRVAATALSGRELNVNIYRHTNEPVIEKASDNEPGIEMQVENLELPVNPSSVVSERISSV

[16] = target: Mu-type opioid receptor (Homo sapiens, UniProt P35372); assay: as §1, with “OPRM1” for “ADRB3”
[17] = target: Sigma intracellular receptor 2 (Homo sapiens, UniProt Q5BJF2); assay: as §1, with “TMEM97” for “ADRB3”
Sequence of Sigma intracellular receptor 2 (Q5BJF2 whole entry): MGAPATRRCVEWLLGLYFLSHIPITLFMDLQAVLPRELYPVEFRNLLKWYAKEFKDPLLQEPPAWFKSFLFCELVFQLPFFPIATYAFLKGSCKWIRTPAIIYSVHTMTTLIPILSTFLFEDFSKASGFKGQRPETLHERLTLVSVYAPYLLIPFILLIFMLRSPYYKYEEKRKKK

[18] = target: 5-hydroxytryptamine receptor 5A (Homo sapiens, UniProt P47898); assay: as §1, with “HTR5A” for “ADRB3”
Sequence of 5-hydroxytryptamine receptor 5A (P47898 whole entry): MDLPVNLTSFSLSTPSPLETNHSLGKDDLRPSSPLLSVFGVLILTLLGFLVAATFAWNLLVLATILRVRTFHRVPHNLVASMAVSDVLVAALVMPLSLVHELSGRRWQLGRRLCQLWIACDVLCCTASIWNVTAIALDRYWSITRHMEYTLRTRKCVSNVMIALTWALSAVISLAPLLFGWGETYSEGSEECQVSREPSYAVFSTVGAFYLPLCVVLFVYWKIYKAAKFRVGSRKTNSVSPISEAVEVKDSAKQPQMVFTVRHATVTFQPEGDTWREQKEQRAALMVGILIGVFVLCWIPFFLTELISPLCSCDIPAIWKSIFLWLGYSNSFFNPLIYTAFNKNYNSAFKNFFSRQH

[19] = target: Kappa-type opioid receptor (Homo sapiens, UniProt P41145); assay: as §1, with “OPRK1” for “ADRB3”
Sequence of Kappa-type opioid receptor (P41145 whole entry): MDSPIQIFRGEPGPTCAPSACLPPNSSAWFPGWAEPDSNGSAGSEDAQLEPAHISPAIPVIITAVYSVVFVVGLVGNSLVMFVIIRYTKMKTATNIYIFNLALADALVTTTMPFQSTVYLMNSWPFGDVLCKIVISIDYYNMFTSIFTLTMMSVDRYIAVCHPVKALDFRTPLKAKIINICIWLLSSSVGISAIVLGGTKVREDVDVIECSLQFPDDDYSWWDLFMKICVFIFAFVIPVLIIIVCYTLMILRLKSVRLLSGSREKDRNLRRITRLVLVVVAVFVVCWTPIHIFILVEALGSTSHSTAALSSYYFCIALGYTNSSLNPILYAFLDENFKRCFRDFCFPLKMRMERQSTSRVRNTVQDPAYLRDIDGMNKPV

Row | pKi [1] | pKi [2] | pKi [3] | pKi [4] | pKi [5] | pKi [6] | pKi [7] | pKi [8] | pKi [9] | pKi [10] | pKi [11] | pKi [12] | pKi [13] | pKi [14] | pKi [15] | pKi [16] | pKi [17] | pKi [18] | pKi [19] | Compound
1 | < 5.00 | < 5.00 |  |  |  |  |  |  |  |  |  |  |  |  |  |  |  |  |  | O=C(Nc1ccc(Cl)cc1)Nc1cccc(-c2cccc(N3CCCC3)n2)c1
2 |  |  | 5.10 | 5.89 | 7.74 | 6.33 | < 5.00 | 5.19 | 6.45 | 6.55 |  |  |  |  |  |  |  |  |  | Nc1nc2c(c(N3CCNCC3)n1)CCC1=C2[C@@H]2CCCC[C@@H]2O1
3 | 5.68 | 5.35 |  |  |  | 6.22 |  |  | 6.01 | 6.09 | 5.25 | 5.97 | 6.23 | 5.57 | 5.89 | 5.45 | 6.18 | 5.72 | 6.05 | COc1ccc(NS(=O)(=O)c2sc3ccc(Cl)cc3c2C)cc1N1CCNCC1
